{"source": "patent US7138361B2", "about": "“Herbicidal heterocycles” (E. I. du Pont de Nemours and Company, priority 2000, dated 2006)", "format_in_all_cases": "in vivo", "key": {"Nightshade [1]": {"system": "Nightshade", "assay": "Test C preemergence", "settings": "Rate 500 g/ha, visual evaluation after 12 to 14 days"}, "[2]": {"system": "smallflower flatsedge (Cyperus difformis)", "assay": "Test C flooded paddy test", "settings": "for Flatsedge plant response rating: Flooded Paddy, scale 0 to 100, 0 no effect, 100 complete control; for Plant response rating, Flatsedge: flooded paddy test, scale 0 to 100 (0 no effect, 100 complete control)", "method_in_brief": "(§1)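 Ratings come from visual comparison with control plants after 12 to 14 days in the greenhouse. Each species was at the 2-leaf stage when the flooded paddy was treated. Scores run from 0, meaning no effect, to 100, meaning complete control.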"}, "[3]": {"system": "duck salad (Heteranthera limosa)", "assay": "Test C flooded paddy test", "settings": "for Ducksalad plant response rating: Flooded Paddy, scale 0 to 100, 0 no effect, 100 complete control", "method_in_brief": "as §1"}, "[4]": {"system": "barnyardgrass (Echinochloa crus-galli)", "assay": "Test C flooded paddy test", "settings": "for Barnyardgrass plant response rating: Flooded Paddy, scale 0 to 100, 0 no effect, 100 complete control; for Plant response rating, Barnyardgrass: flooded paddy test, scale 0 to 100 (0 no effect, 100 complete control)", "method_in_brief": "as §1"}, "rice (Oryza saliva)": {"system": "rice (Oryza saliva)", "assay": "Test C flooded paddy test", "settings": "for Rice plant response rating: Flooded Paddy, scale 0 to 100, 0 no effect, 100 complete control; for Plant response rating, Rice: flooded paddy test, scale 0 to 100 (0 no effect, 100 complete control)", "method_in_brief": "as §1"}, "[5]": {"system": "morningglory (Ipomoea hederacea)", "assay": "Test C preemergence", "method_in_brief": "(§2)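 Test chemicals, formulated in a non-phytotoxic solvent mixture with surfactant, were applied preemergence to planted seeds or postemergence to plants 2 to 18 cm tall (1- to 4-leaf stage). After 12 to 14 days in a greenhouse, injury was visually rated against untreated controls on a 0–100 scale.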"}, "[6]": {"system": "johnsongrass (Sorghum halepense)", "assay": "Test C preemergence", "method_in_brief": "as §2"}, "[7]": {"system": "common ragweed (Ambrosia elatior)", "assay": "Test C preemergence", "settings": "preemergence", "method_in_brief": "as §2"}, "Sunflower": {"system": "Sunflower", "assay": "Test C preemergence", "settings": "Rate 125 g/ha; scale 0 to 100, 0 no effect, 100 complete control"}, "[8]": {"system": "goosegrass (Eleusine indica)", "assay": "Test C preemergence", "method_in_brief": "as §2"}, "soybean (Glycine max)": {"system": "soybean (Glycine max)", "assay": "Test C preemergence", "method_in_brief": "as §2"}, "[9]": {"system": "pigweed (Amaranthus retroflexus)", "assay": "Test C preemergence", "method_in_brief": "as §2"}, "[10]": {"system": "bermudagrass (Cynodon dactylon)", "assay": "Test C preemergence", "method_in_brief": "as §2"}, "[11]": {"system": "giant foxtail (Setaria faberii)", "assay": "Test C preemergence", "method_in_brief": "as §2"}, "[12]": {"system": "crabgrass (Digitaria sanguinalis)", "assay": "Test C preemergence", "method_in_brief": "as §2"}, "[13]": {"system": "velvetleaf (Abutilon theophrasti)", "assay": "Test C preemergence", "method_in_brief": "as §2"}, "kochia (Kochia scoparia)": {"system": "kochia (Kochia scoparia)", "assay": "Test C preemergence", "method_in_brief": "as §2"}, "[14]": {"system": "yellow nutsedge (Cyperus esculentus)", "assay": "Test C preemergence", "method_in_brief": "as §2"}, "[15]": {"system": "Surinam grass (Brachiaria decumbens)", "assay": "Test C preemergence", "method_in_brief": "as §2"}, "Nightshade [16]": {"system": "Nightshade", "assay": "Test C preemergence"}, "[17]": {"system": "woolly cupgrass (Eriochloa villosa)", "assay": "Test C preemergence", "method_in_brief": "as §2"}, "corn (Zea mays)": {"system": "corn (Zea mays)", "assay": "Test C preemergence", "method_in_brief": "as §2"}, "[18]": {"system": "cocklebur (Xanthium strumarium)", "assay": "Test C preemergence", "method_in_brief": "as §2"}, "[19]": {"settings": "Rate 125 g/ha, scale 0 to 100, 0 no effect, 100 complete control"}, "[20]": {"settings": "preemergence, Rate 62 g/ha, scale 0 to 100"}, "[21]": {"settings": "preemergence, Rate 500 g/ha, visual evaluation after 12 to 14 days"}, "[22]": {"settings": "preemergence, Rate 250 g/ha, scale 0 to 100, 0 no effect, 100 complete control"}, "[23]": {"settings": "Rate 250 g/ha, scale 0 to 100, 0 no effect, 100 complete control"}}, "data": [{"smiles": "CCC(CC)c1ccn(C2CCN(c3ccc(Cl)c(OC)c3)C2=O)n1", "note": "(centres unmarked) [Compound 118]", "values": [{"measurement": "Plant response rating (0 to 100), Nightshade", "setting": "Nightshade [1]", "result": 100}, {"measurement": "Flatsedge plant response rating", "setting": "[2]; Rate 250 g/ha", "result": 100}, {"measurement": "Flatsedge plant response rating", "setting": "[2]; Rate 500 g/ha", "result": 100}, {"measurement": "Plant response rating, Flatsedge", "setting": "[2]; Rate 62 g/ha", "result": 0}, {"measurement": "Plant response rating, Flatsedge", "setting": "[2]; Rate 125 g/ha", "result": 100}, {"measurement": "Ducksalad plant response rating", "setting": "[3]; Rate 250 g/ha", "result": 100}, {"measurement": "Ducksalad plant response rating", "setting": "[3]; Rate 500 g/ha", "result": 100}, {"measurement": "Plant response rating, Ducksalad", "setting": "[3]; flooded paddy test, Rate 125 g/ha, scale 0 to 100 (0 no effect, 100 complete control)", "result": 60}, {"measurement": "Barnyardgrass plant response rating", "setting": "[4]; Rate 250 g/ha", "result": 100}, {"measurement": "Barnyardgrass plant response rating", "setting": "[4]; Rate 500 g/ha", "result": 100}, {"measurement": "Plant response rating, Barnyardgrass", "setting": "[4]; Rate 62 g/ha", "result": 50}, {"measurement": "Plant response rating, Barnyardgrass", "setting": "[4]; Rate 125 g/ha", "result": 60}, {"measurement": "Rice plant response rating", "setting": "rice (Oryza saliva); Rate 250 g/ha", "result": 20}, {"measurement": "Rice plant response rating", "setting": "rice (Oryza saliva); Rate 500 g/ha", "result": 30}, {"measurement": "Plant response rating, Rice", "setting": "rice (Oryza saliva); Rate 62 g/ha", "result": 0}, {"measurement": "Plant response rating, Rice", "setting": "rice (Oryza saliva); Rate 125 g/ha", "result": 0}, {"measurement": "Plant response rating, Morningglory", "setting": "[5]; [19]", "result": 20}, {"measurement": "Plant response rating, Morningglory", "setting": "[5]; [20]", "result": 0}, {"measurement": "Plant response rating (0 to 100), Morningglory", "setting": "[5]; [21]", "result": 100}, {"measurement": "Plant response rating, Morningglory", "setting": "[5]; [22]", "result": 90}, {"measurement": "Plant response rating, Johnsongrass", "setting": "[6]; [19]", "result": 40}, {"measurement": "Plant response rating, Johnsongrass", "setting": "[6]; [20]", "result": 0}, {"measurement": "Plant response rating (0 to 100), Johnsongrass", "setting": "[6]; [21]", "result": 100}, {"measurement": "Plant response rating, Johnsongrass", "setting": "[6]; [22]", "result": 70}, {"measurement": "Plant response rating, Ragweed, Common", "setting": "[7]; Rate 62 g/ha, scale 0 to 100", "result": 60}, {"measurement": "Plant response rating (0 to 100), Ragweed, Common", "setting": "[7]; Rate 500 g/ha, visual evaluation after 12 to 14 days", "result": 100}, {"measurement": "Plant response rating, Ragweed, Common", "setting": "[7]; [23]", "result": 80}, {"measurement": "Plant response rating, Sunflower", "setting": "Sunflower", "result": 50}, {"measurement": "Plant response rating, Goosegrass", "setting": "[8]; [19]", "result": 100}, {"measurement": "Plant response rating, Goosegrass", "setting": "[8]; [20]", "result": 100}, {"measurement": "Plant response rating (0 to 100), Goosegrass", "setting": "[8]; [21]", "result": 100}, {"measurement": "Plant response rating, Goosegrass", "setting": "[8]; [22]", "result": 100}, {"measurement": "Plant response rating, Soybean", "setting": "soybean (Glycine max); [19]", "result": 60}, {"measurement": "Plant response rating, Soybean", "setting": "soybean (Glycine max); [20]", "result": 40}, {"measurement": "Plant response rating (0 to 100), Soybean", "setting": "soybean (Glycine max); [21]", "result": 90}, {"measurement": "Plant response rating, Soybean", "setting": "soybean (Glycine max); [22]", "result": 65}, {"measurement": "Plant response rating, Pigweed", "setting": "[9]; [19]", "result": 100}, {"measurement": "Plant response rating, Pigweed", "setting": "[9]; [20]", "result": 75}, {"measurement": "Plant response rating (0 to 100), Pigweed", "setting": "[9]; [21]", "result": 100}, {"measurement": "Plant response rating, Pigweed", "setting": "[9]; [22]", "result": 100}, {"measurement": "Plant response rating, Bermudagrass", "setting": "[10]; [19]", "result": 100}, {"measurement": "Plant response rating, Bermudagrass", "setting": "[10]; [20]", "result": 100}, {"measurement": "Plant response rating (0 to 100 where 0 is no effect and 100 is complete control), Bermudagrass", "setting": "[10]; [21]", "result": 100}, {"measurement": "Plant response rating, Bermudagrass", "setting": "[10]; [22]", "result": 100}, {"measurement": "Plant response rating, Foxtail, Giant", "setting": "[11]; [19]", "result": 100}, {"measurement": "Plant response rating, Foxtail, Giant", "setting": "[11]; [20]", "result": 0}, {"measurement": "Plant response rating (0 to 100), Foxtail, Giant", "setting": "[11]; [21]", "result": 100}, {"measurement": "Plant response rating, Foxtail, Giant", "setting": "[11]; [22]", "result": 100}, {"measurement": "Plant response rating, Crabgrass", "setting": "[12]; [19]", "result": 100}, {"measurement": "Plant response rating, Crabgrass", "setting": "[12]; [20]", "result": 100}, {"measurement": "Plant response rating (0 to 100), Crabgrass", "setting": "[12]; [21]", "result": 100}, {"measurement": "Plant response rating, Crabgrass", "setting": "[12]; [22]", "result": 100}, {"measurement": "Plant response rating, Velvetleaf", "setting": "[13]; [19]", "result": 100}, {"measurement": "Plant response rating, Velvetleaf", "setting": "[13]; [20]", "result": 20}, {"measurement": "Plant response rating (0 to 100), Velvetleaf", "setting": "[13]; [21]", "result": 100}, {"measurement": "Plant response rating, Velvetleaf", "setting": "[13]; [22]", "result": 100}, {"measurement": "Plant response rating, Kochia", "setting": "kochia (Kochia scoparia); [19]", "result": 100}, {"measurement": "Plant response rating, Kochia", "setting": "kochia (Kochia scoparia); [20]", "result": 80}, {"measurement": "Plant response rating (0 to 100), Kochia", "setting": "kochia (Kochia scoparia); [21]", "result": 100}, {"measurement": "Plant response rating, Kochia", "setting": "kochia (Kochia scoparia); [22]", "result": 100}, {"measurement": "Plant response rating, Nutsedge", "setting": "[14]; [19]", "result": 0}, {"measurement": "Plant response rating, Nutsedge", "setting": "[14]; [20]", "result": 0}, {"measurement": "Plant response rating (0 to 100), Nutsedge", "setting": "[14]; [21]", "result": 0}, {"measurement": "Plant response rating, Nutsedge", "setting": "[14]; [22]", "result": 0}, {"measurement": "Plant response rating, Surinam grass", "setting": "[15]; [19]", "result": 10}, {"measurement": "Plant response rating, Surinam grass", "setting": "[15]; [20]", "result": 0}, {"measurement": "Plant response rating (0 to 100), Surinam grass", "setting": "[15]; [21]", "result": 50}, {"measurement": "Plant response rating, Surinam grass", "setting": "[15]; [22]", "result": 30}, {"measurement": "Plant response rating, Nightshade", "setting": "Nightshade [16]; Rate 62 g/ha, scale 0 to 100", "result": 100}, {"measurement": "Plant response rating, Nightshade", "setting": "Nightshade [16]; [19]", "result": 100}, {"measurement": "Plant response rating, Nightshade", "setting": "Nightshade [16]; [23]", "result": 100}, {"measurement": "Plant response rating, Cupgrass, Woolly", "setting": "[17]; [19]", "result": 90}, {"measurement": "Plant response rating, Cupgrass, Woolly", "setting": "[17]; [20]", "result": 40}, {"measurement": "Plant response rating (0 to 100), Cupgrass, Woolly", "setting": "[17]; [21]", "result": 100}, {"measurement": "Plant response rating, Cupgrass, Woolly", "setting": "[17]; [22]", "result": 100}, {"measurement": "Plant response rating, Corn", "setting": "corn (Zea mays); [19]", "result": 0}, {"measurement": "Plant response rating, Corn", "setting": "corn (Zea mays); [20]", "result": 0}, {"measurement": "Plant response rating (0 to 100), Corn", "setting": "corn (Zea mays); [21]", "result": 35}, {"measurement": "Plant response rating, Corn", "setting": "corn (Zea mays); [22]", "result": 10}, {"measurement": "Plant response rating, Cocklebur", "setting": "[18]; [19]", "result": 0}, {"measurement": "Plant response rating, Cocklebur", "setting": "[18]; [20]", "result": 0}, {"measurement": "Plant response rating (0 to 100), Cocklebur", "setting": "[18]; [21]", "result": 0}, {"measurement": "Plant response rating, Cocklebur", "setting": "[18]; [22]", "result": 0}]}]}
